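The compound was tested at five concentrations on cells cultured in 96-well plates, with a 48-hour exposure period. At the GI50, growth is halved.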 Active and inactive are the calls of the source. Cut-off read from the data, not from the text of the source: active = GI50 up to about 1.1 µM and inactive = higher.
Tests used:
Assay in all cases: growth of human tumour cells (NCI), 48 h
[1] = test system: UACC-62
[2] = test system: OVCAR-4
[3] = test system: ACHN
[4] = test system: OVCAR-5
[5] = test system: HCT-116
[6] = test system: MOLT-4
[7] = test system: TK-10
[8] = test system: HCC 2998
[9] = test system: SF-268
[10] = test system: NCI-H460
[11] = test system: SR
[12] = test system: SF-539
[13] = test system: CAKI-1
[14] = test system: SK-OV-3
[15] = test system: UACC-257
[16] = test system: NCI-H226
[17] = test system: A498

Measured: GI50

O=C1CCC(=O)N1Cc1ccccc1/N=[N+](\[O-])c1ccccc1CN1C(=O)CCC1=O
inactive: [1] > 100 µM | [2] > 100 µM | [3] > 100 µM | [4] > 100 µM | [5] > 100 µM | [6] > 100 µM | [7] > 100 µM | [8] > 100 µM | [9] > 100 µM | [10] > 100 µM | [11] > 100 µM | [12] > 100 µM

Brc1ccc(-c2nnc(-c3nn(-c4ccccc4)c4nc5ccccc5nc34)o2)cc1
inactive: [13] > 100 µM | [1] > 100 µM | [14] > 100 µM | [2] 79.3 µM | [3] > 100 µM | [4] 68.9 µM | [5] 27.8 µM | [6] 33.5 µM | [7] > 100 µM | [8] > 100 µM | [9] > 100 µM | [15] 92 µM | [10] > 100 µM | [16] > 100 µM | [11] 27.8 µM | [12] > 100 µM

COc1ccc(/C=C/CO)cc1OC
inactive: [1] > 100 µM | [14] > 100 µM | [3] > 100 µM | [4] > 100 µM | [6] > 100 µM | [7] > 100 µM | [8] > 100 µM | [9] > 100 µM | [15] > 100 µM | [16] 49.9 µM | [11] > 100 µM | [12] > 100 µM

CC1(C)NC(=O)N(CCCCCCN2C(=O)NC(C)(C)C2=O)C1=O
inactive: [13] > 100 µM | [1] > 100 µM | [14] > 100 µM | [2] > 100 µM | [3] > 100 µM | [17] > 100 µM | [4] > 100 µM | [5] > 100 µM | [6] > 100 µM | [7] > 100 µM | [8] > 100 µM | [9] > 100 µM | [15] > 100 µM | [10] > 100 µM | [16] > 100 µM

O=c1/c(=C/c2ccc3c(c2)OCO3)sc2nnc(-c3ccco3)n12
inactive: [13] > 100 µM | [1] > 100 µM | [14] > 100 µM | [2] > 100 µM | [3] > 100 µM | [17] > 100 µM | [4] > 100 µM | [5] > 100 µM | [6] > 100 µM | [7] > 100 µM | [8] > 100 µM | [9] > 100 µM | [15] 15.3 µM | [10] > 100 µM | [16] > 100 µM | [12] > 100 µM

Cc1nnc(N/N=C(/C(=O)C(C#N)c2ccc(Cl)cc2)C(C#N)c2ccc(Cl)cc2)n1N (configuration not stated)
inactive: [13] 20.8 µM | [2] 18.1 µM | [3] 15.9 µM | [4] 18.5 µM | [6] 31.7 µM | [7] 20 µM | [8] 19.4 µM | [9] 24.1 µM | [15] 17.4 µM | [10] 18.6 µM | [16] 16.1 µM

NCCOCCOCC(=O)O
inactive: [13] > 100 µM | [1] > 100 µM | [14] > 100 µM | [2] > 100 µM | [3] > 100 µM | [4] > 100 µM | [5] > 100 µM | [6] > 100 µM | [7] > 100 µM | [8] > 100 µM | [9] > 100 µM | [15] > 100 µM | [16] > 100 µM | [11] > 100 µM | [12] > 100 µM

Reference: ChEMBL document CHEMBL1201862, “PubChem BioAssay data set” (2004)
